pIC50: −log10 of the molar value.

What all share (format): cell-based
The target in series [1] is ATP-dependent translocase ABCB1 (Homo sapiens, UniProt P08183). The experiment in a line: Inhibition of ABCB1 in human A2780/ADR cells at 5 to 10 uM preincubated for 30 mins followed by calcein AM addition and measured every 60 secs for 1 hr by fluorescence assay.
Series [2] addresses Multidrug resistance-associated protein 1 (Homo sapiens, UniProt P33527). The experiment in a line: Inhibition of ABCC1 in human […] cells at 5 to 10 uM preincubated for 30 mins followed by calcein AM addition and measured every 60 secs for 1 hr by fluorescence assay.
Series [3] has as its target T1, Broad substrate specificity ATP-binding cassette transporter ABCG2 (Homo sapiens, UniProt Q9UNQ0).
T1 sequence (Q9UNQ0 whole entry): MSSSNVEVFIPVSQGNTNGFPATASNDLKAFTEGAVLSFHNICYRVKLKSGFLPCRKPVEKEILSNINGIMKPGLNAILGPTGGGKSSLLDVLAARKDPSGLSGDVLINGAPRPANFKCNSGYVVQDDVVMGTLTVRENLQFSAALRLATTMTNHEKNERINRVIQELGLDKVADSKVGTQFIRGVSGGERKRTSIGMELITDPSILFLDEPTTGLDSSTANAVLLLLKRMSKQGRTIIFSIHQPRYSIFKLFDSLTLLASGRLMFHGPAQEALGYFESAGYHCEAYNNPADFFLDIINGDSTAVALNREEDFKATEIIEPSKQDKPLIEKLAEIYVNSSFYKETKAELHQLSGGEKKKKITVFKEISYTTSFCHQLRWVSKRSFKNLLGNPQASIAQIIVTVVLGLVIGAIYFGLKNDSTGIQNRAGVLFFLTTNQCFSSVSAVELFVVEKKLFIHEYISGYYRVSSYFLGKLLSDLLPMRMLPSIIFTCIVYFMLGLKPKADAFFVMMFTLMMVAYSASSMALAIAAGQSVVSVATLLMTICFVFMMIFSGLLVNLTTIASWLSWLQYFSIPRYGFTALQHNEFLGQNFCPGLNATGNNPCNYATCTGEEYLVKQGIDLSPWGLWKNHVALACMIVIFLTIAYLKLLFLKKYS
Put plainly: Inhibition of ABCG2 (unknown origin) expressed in MDCK II BCRP cells assessed as effect on pheophorbide A accumulation after 120 mins by flow cytometric analysis.

The target in series [4] is T2, ABCG2 (BCRP) (Homo sapiens, UniProt Q9UNQ0).
T2 sequence (Q9UNQ0 whole entry): T1 sequence (Q9UNQ0 whole entry)
The experiment in a line: (§1) Inhibition of ABCG2 (unknown origin) expressed in MDCK II BCRP cells assessed as effect on heophorbide A accumulation at 5 to 10 uM after 120 mins by flow cytometric analysis relative to control. The following applies: MDCK II BCRP cells expressing ABCG2, probe pheophorbide A. (In general: A flow cytometer gives signals particle by particle.)

Series [5] deals with T1, Broad substrate specificity ATP-binding cassette transporter ABCG2. The series is described as §1. The following applies: 2 h.

Sequence of ATP-dependent translocase ABCB1 (P08183 whole entry): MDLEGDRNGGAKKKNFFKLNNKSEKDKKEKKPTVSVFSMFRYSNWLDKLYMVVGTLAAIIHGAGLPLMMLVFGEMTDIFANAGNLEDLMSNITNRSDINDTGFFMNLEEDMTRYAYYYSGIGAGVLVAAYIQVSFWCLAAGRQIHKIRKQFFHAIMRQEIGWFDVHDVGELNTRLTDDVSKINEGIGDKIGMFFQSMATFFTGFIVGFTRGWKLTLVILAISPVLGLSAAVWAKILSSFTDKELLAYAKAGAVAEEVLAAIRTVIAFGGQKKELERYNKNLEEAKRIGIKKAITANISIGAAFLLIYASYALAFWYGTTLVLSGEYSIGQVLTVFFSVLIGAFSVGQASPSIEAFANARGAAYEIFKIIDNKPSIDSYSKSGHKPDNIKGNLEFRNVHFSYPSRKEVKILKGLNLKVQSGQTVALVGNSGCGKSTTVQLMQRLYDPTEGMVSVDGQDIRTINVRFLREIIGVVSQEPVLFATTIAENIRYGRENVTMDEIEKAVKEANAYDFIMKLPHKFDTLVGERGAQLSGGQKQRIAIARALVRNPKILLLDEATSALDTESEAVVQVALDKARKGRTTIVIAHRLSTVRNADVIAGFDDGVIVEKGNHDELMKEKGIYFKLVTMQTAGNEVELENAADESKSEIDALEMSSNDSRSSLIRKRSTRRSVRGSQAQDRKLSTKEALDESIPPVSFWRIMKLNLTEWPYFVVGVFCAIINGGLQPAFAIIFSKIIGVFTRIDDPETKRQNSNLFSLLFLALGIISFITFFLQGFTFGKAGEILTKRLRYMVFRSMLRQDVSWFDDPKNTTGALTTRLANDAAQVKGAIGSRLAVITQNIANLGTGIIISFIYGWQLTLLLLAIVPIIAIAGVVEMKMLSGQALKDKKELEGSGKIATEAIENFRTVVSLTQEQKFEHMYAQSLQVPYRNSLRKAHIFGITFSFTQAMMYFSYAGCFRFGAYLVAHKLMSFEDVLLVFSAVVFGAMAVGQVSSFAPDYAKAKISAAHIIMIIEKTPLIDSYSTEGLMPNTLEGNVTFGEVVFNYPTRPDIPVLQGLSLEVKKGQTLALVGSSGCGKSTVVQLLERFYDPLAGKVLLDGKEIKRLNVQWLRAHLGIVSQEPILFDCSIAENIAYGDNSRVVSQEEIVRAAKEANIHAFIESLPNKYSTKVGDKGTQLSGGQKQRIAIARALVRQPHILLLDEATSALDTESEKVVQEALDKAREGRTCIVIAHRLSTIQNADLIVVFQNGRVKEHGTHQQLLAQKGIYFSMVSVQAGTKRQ
Sequence of Multidrug resistance-associated protein 1 (P33527 whole entry): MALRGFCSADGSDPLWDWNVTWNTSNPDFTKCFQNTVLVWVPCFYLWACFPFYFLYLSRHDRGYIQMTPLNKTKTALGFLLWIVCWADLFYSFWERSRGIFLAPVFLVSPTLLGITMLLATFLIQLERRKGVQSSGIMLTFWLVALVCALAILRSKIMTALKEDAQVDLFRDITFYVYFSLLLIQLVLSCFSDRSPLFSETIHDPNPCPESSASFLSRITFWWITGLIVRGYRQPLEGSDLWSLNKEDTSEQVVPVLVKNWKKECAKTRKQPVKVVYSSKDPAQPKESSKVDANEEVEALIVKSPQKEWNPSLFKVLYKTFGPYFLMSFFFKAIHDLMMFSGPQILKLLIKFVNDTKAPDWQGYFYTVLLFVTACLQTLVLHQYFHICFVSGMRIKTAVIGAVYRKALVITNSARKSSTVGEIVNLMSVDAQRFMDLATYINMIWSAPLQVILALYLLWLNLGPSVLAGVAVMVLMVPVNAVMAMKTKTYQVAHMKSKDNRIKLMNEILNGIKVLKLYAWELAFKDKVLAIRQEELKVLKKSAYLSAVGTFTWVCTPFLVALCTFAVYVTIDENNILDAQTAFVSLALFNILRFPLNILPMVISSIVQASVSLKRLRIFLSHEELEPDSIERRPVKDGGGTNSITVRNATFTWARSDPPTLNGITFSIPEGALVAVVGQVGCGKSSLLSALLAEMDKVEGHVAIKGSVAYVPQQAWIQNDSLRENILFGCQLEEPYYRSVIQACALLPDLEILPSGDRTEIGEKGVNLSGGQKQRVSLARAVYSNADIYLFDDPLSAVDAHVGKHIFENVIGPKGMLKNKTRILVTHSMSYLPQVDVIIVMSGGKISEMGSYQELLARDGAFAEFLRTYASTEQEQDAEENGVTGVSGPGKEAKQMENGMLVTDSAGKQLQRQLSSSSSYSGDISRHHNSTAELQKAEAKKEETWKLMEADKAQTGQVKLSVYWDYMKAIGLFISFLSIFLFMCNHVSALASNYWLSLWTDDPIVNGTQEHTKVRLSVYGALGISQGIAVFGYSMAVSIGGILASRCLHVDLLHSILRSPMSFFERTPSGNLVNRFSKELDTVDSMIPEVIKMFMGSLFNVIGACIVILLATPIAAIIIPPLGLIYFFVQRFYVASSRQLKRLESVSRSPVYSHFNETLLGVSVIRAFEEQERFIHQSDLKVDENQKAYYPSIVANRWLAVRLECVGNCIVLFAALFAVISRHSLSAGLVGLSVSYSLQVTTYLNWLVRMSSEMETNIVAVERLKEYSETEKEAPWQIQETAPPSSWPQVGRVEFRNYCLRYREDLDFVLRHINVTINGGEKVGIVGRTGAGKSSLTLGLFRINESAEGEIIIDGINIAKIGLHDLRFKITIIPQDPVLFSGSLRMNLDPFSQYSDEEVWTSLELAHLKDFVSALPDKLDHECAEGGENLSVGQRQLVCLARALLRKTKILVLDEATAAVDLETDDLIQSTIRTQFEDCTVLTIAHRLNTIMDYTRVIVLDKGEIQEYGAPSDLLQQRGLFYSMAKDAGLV

What is called pIC50 is the IC50 on a negative log10 scale, so that one unit is a factor of ten. As usually defined, the inhibition is the percentage by which the read-out fell short of the control. `O=C(/C=C/c1ccc(OCc2ccc(Cl)cc2)cc1)c1ccc(O)cc1`: the “inhibition (INH)” value in series [1] and in series [2] was “Not Active” each time. In series [3], the pIC50 is 4.70. Besides, the inhibition at 2 h in series [4] is no less than 25%.
For the compound `COc1cccc(/C=C/C(=O)c2ccc(OCC(=O)Nc3ccc4c(c3)COC4=O)cc2)c1`, in series [5], the “inhibition (INH)” value is listed as “Not Active”.
On the same count and under the same terms, to `O=C(COc1ccc(C(=O)/C=C/c2ccc(OCc3ccccc3)cc2)cc1)Nc1ccc2c(c1)COC2=O` belongs “Not Active”.
With `CCOc1ccc(/C=C/C(=O)c2ccc(OCC(=O)Nc3ccc4c(c3)COC4=O)cc2)cc1`, in series [3], the pIC50 is 4.70. Besides, the inhibition at 2 h in series [4] was no less than 25%.
Turning to `O=C(COc1ccc(C(=O)/C=C/c2cccs2)cc1)Nc1ccc2c(c1)COC2=O`, in series [5], the “inhibition (INH)” value was “Not Active”.
Take `O=C(COc1c(-c2cccs2)oc2ccccc2c1=O)Nc1ccc2c(c1)COC2=O`: the “inhibition (INH)” value in series [5] is reported as “Not Active”.
The same measure, in the same setting: to `CCCCOc1ccc(/C=C/C(=O)c2ccc(OCC(=O)Nc3ccc4c(c3)COC4=O)cc2)cc1` belongs “Not Active”.
`COc1cc(C(=O)/C=C/c2cc(OC)c(OC)c(OC)c2)ccc1OCC(=O)Nc1ccc2c(c1)COC2=O`: in series [3], the negative logarithm of the IC50 (pIC50) is 4.94. The inhibition at 2 h in series [4] is no less than 25%.
Regarding `COc1cc(/C=C/C(=O)c2ccc(OCC(=O)Nc3ccc4c(c3)COC4=O)cc2)cc(OC)c1OC`, in series [3], the pIC50 was 5.07. For the same compound, the inhibition at 2 h in series [4] was no less than 25%.
With `O=C(COc1ccc(C(=O)/C=C/c2ccc(OCc3ccc(Cl)cc3Cl)cc2)cc1)Nc1ccc2c(c1)COC2=O`, the “inhibition (INH)” value in series [5] is recorded as “Not Active”.
On the same count and under the same terms, in the case of `CCOc1ccc(/C=C/C(=O)c2ccc(OCC(=O)NCc3ccc4c(c3)OCO4)cc2)cc1` it was “Not Active”.
As for `O=C(/C=C/c1cccs1)c1ccc(O)cc1`, the “inhibition (INH)” value in series [1] and in series [2] was “Not Active” each time. Also, the pIC50 in series [3] was 4.74. In addition, the inhibition at 2 h in series [4] was no less than 25%.
Consider `CCCOc1ccc(/C=C/C(=O)c2ccc(OCC(=O)Nc3ccc4c(c3)COC4=O)cc2)cc1`, for which the “inhibition (INH)” value in series [5] is “Not Active”.
On the same count and under the same terms, in the case of `O=C(COc1ccc(C(=O)/C=C/c2ccc([N+](=O)[O-])cc2)cc1)Nc1ccc2c(c1)COC2=O` it was “Not Active”.
As for `COc1ccc(NC(=O)COc2ccc(C(=O)/C=C/c3ccc(Cl)cc3)cc2)cc1OC`, in series [3], the pIC50 is 5.16. In series [4], the inhibition at 2 h is no less than 25%.
For `O=C(COc1c(-c2ccco2)oc2ccccc2c1=O)Nc1ccc2c(c1)COC2=O`, in series [5], the “inhibition (INH)” value is “Not Active”.
For the compound `COc1cc(-c2oc3ccccc3c(=O)c2OCC(=O)Nc2ccc3c(c2)COC3=O)cc(OC)c1OC`, the pIC50 in series [3] is 5.05. For the same compound, the inhibition at 2 h in series [4] was no less than 25%.
For the compound `O=C(/C=C/c1ccco1)c1ccccc1O`, the “inhibition (INH)” value in series [1] and in series [2] was “Not Active” throughout. Also, the negative logarithm of the IC50 (pIC50) in series [3] is 4.79. In series [4], the inhibition at 2 h was no less than 25%.
Take `O=C(/C=C/c1c(F)cccc1F)c1ccc(O)cc1`: the “inhibition (INH)” value in series [1] and in series [2] was “Not Active” each time. Moreover, in series [3], the negative logarithm of the IC50 (pIC50) was 5.14. The inhibition at 2 h in series [4] is no less than 25%.
Turning to `COc1cc(/C=C/C(=O)c2cccc(O)c2)cc(OC)c1OC`, the “inhibition (INH)” value in series [1] and in series [2] was “Not Active” throughout. In addition, the negative-log IC50 (pIC50) in series [3] was 5.37. Also, the inhibition at 2 h in series [4] was no less than 25%.
For the compound `O=C(COc1ccc(C(=O)/C=C/c2ccccc2)cc1)Nc1ccc2c(c1)COC2=O`, in series [5], the “inhibition (INH)” value is on record as “Not Active”.
Take `O=C(COc1c(-c2ccccc2)oc2ccccc2c1=O)Nc1ccc2c(c1)COC2=O`: the pIC50 in series [3] is 4.88. Also, the inhibition at 2 h in series [4] was no less than 25%.
For `O=C(COc1ccc(/C=C/C(=O)c2ccc(F)cc2)cc1)Nc1ccc2c(c1)COC2=O`, in series [5], the “inhibition (INH)” value is “Not Active”.
Take `COc1ccc(/C=C/C(=O)c2cccc(OCC(=O)Nc3ccc4c(c3)COC4=O)c2)cc1OC`: the negative-log IC50 (pIC50) in series [3] is 4.92. In addition, in series [4], the inhibition at 2 h was no less than 25%.
With `COc1cc(-c2c(OCC(=O)Nc3cccc4ccccc34)oc3ccccc3c2=O)cc(OC)c1OC`, the pIC50 in series [3] was 4.98. For the same compound, in series [4], the inhibition at 2 h was no less than 25%.
For the compound `O=C(COc1ccc(C(=O)/C=C/c2ccccc2Cl)cc1)Nc1ccc2c(c1)COC2=O`, the “inhibition (INH)” value in series [5] is “Not Active”.
As to `O=C(COc1ccc(C(=O)/C=C/c2ccc(OCc3ccc(Cl)cc3)cc2)cc1)Nc1ccc2c(c1)COC2=O`, in series [5], the “inhibition (INH)” value is recorded as “Not Active”.
On to `COc1ccc(-c2oc3ccccc3c(=O)c2OCC(=O)Nc2ccc3c(c2)COC3=O)cc1OC`, for which, in series [5], the “inhibition (INH)” value is on record as “Not Active”.
Consider `COc1ccc(-c2c(OCC(=O)Nc3ccc(Br)cc3)oc3ccccc3c2=O)cc1`, for which the “inhibition (INH)” value in series [5] is on record as “Not Active”.
In the case of `Cc1ccc(-c2c(OCC(=O)Nc3ccc(Br)cc3)oc3ccccc3c2=O)cc1`, the “inhibition (INH)” value in series [5] was “Not Active”.
Take `COc1ccc(NC(=O)COc2ccc(C(=O)/C=C/c3ccco3)cc2)cc1OC`: in series [3], the pIC50 is 5.27. For the same compound, the inhibition at 2 h in series [4] is no less than 25%.
`COc1ccc(/C=C/C(=O)c2ccc(OCC(=O)Nc3ccc4c(c3)COC4=O)cc2)cc1OC`: the pIC50 in series [3] is 5.18. Moreover, in series [4], the inhibition at 2 h is no less than 25%.
Regarding `O=C(COc1ccc(C(=O)/C=C/c2c(F)cccc2F)cc1)Nc1ccc2c(c1)COC2=O`, the pIC50 in series [3] is 4.96. In addition, in series [4], the inhibition at 2 h is no less than 25%.
Consider `O=C(COc1ccc(C(=O)/C=C/c2c(F)cccc2F)cc1)NCc1ccc2c(c1)OCO2`, for which the “inhibition (INH)” value in series [5] is on record as “Not Active”.
On the same count and under the same terms, to `Cc1ccc(-c2oc3ccccc3c(=O)c2OCC(=O)Nc2ccc3c(c2)COC3=O)cc1` belongs “Not Active”.
Take `COc1ccc(/C=C/C(=O)c2ccc(OCC(=O)NCc3ccc4c(c3)OCO4)cc2)cc1`: in series [3], the pIC50 was 5.00. Also, the inhibition at 2 h in series [4] is no less than 25%.
`COc1ccc(/C=C/C(=O)c2cccc(OCC(=O)Nc3ccc(OC)c(OC)c3)c2)cc1OC`: the pIC50 in series [3] was 5.20. Further, the inhibition at 2 h in series [4] is no less than 25%.
On to `O=C(/C=C/c1cccs1)c1ccccc1O`, for which the “inhibition (INH)” value in series [1] and in series [2] was “Not Active” in each case. For the same compound, the pIC50 in series [3] was 4.98. Besides, in series [4], the inhibition at 2 h was no less than 25%.
Take `O=C(COc1ccc(C(=O)/C=C/c2ccco2)cc1)Nc1ccc2c(c1)COC2=O`: in series [5], the “inhibition (INH)” value is “Not Active”.
With `CCCCOc1ccc(/C=C/C(=O)c2ccc(O)cc2)cc1`, the “inhibition (INH)” value in series [1] and in series [2] was “Not Active” in each case. The negative logarithm of the IC50 (pIC50) in series [3] was 5.14. The inhibition at 2 h in series [4] was no less than 25%.
Take `CCOc1ccc(/C=C/C(=O)c2ccc(O)cc2)cc1`: the “inhibition (INH)” value in series [1] and in series [2] was “Not Active” in each case. Also, the pIC50 in series [3] was 5.19. In series [4], the inhibition at 2 h is no less than 25%.
On to `O=C(/C=C/c1ccc(OCc2ccccc2)cc1)c1ccc(O)cc1`, for which the “inhibition (INH)” value in series [1] and in series [2] was “Not Active” in each case. Moreover, the pIC50 in series [3] is 5.04. In series [4], the inhibition at 2 h was no less than 25%.
`COc1ccc(/C=C/C(=O)c2ccc(OCC(=O)Nc3ccc4c(c3)COC4=O)cc2)cc1`: the “inhibition (INH)” value in series [5] is reported as “Not Active”.
The same measure, in the same setting: in the case of `COc1ccc(-c2oc3ccccc3c(=O)c2OCC(=O)Nc2ccc3c(c2)COC3=O)cc1` it was “Not Active”.
